{"source": "ChEMBL document CHEMBL1150745", "about": "“Plant anticancer agents, XLVI. Cytotoxic casbane-type constituents of Agrostistachys hookeri” (1988)", "data": [{"tested_on": "P388", "experiment": "Cytotoxicity against mouse P388 cells", "type": "functional", "conditions": "read-out: ED50 (the source's name)", "units": {"EC50": "µg/mL"}, "values": [{"smiles": "C/C1=C/[C@H](O)C/C(C)=C/[C@H](O)C(=O)/C(C)=C/[C@H]2[C@@H](CC1)C2(C)C", "note": "[AGROSTISTACHIN]", "EC50": 1.4}, {"smiles": "C/C1=C/[C@H](O)C/C(C)=C/[C@H](O)C(=O)/C(C)=C/[C@H]2[C@@H](CC1)[C@]2(C)CO", "EC50": 0.8}, {"smiles": "C/C1=C\\[C@H](O)C(=O)/C(C)=C/[C@@H]2[C@@H](CCC(C)(O)/C=C/C1)C2(C)C", "note": "(some centres undefined) [AGROSKERIN]", "EC50": 1.4}, {"smiles": "C/C1=C/C(=O)C/C(C)=C/[C@H](O)C(=O)/C(C)=C/[C@H]2[C@@H](CC1)C2(C)C", "EC50": 2.8}]}]}
